# Experimental data taken from patent US6399625B1, “1-oxorapamycins” (Wyeth, priority 2000, dated 2002).
# Read-outs that look alike come from different tables or passages of the source.
# Columns and labels:
# Type in all cases: cell-based
# SH-SY5Y cells = assay: Neuroregeneration activity, neurite outgrowth; settings: aphidicolin pretreated, NGF plus test compound, mean ± SEM
# Excerpt: The neuroregeneration activity for the compounds of this invention was confirmed in a standard pharmacological test procedure by evaluating 1-oxo-rapamycin (Compound I) as representative compound of this invention, against SH-SY5Y cells in vitro [Gold et al., Exp Neurol 147: 269-278, 1997]. Briefly, SH-SY5Y cells were placed in 6-well plate treated with aphidicolin for 5 days followed by the test compounds using 6-well plates. For controls, wells were untreated, or treated with nerve growth factor (NGF) alone. Test wells were treated with NGF plus compound I or rapamycin. Cells were photographed at 168 hours. Analysis of neuritic lengths was performed on photographic prints using a Houston Instrument HI-PAD digitizing tablet connected to an IBM XT computer with appropriate software (Bioquant IV, R&M Biometrics, Nashville, Tenn.). Mean values for axonal areas were compared using by ANOVA (STATVIEW, Abacus Concepts, Inc., Berkeley, Calif. The following table summarizes the results that were obtained.
# C. tropicalis GC 3081 = assay: Antifungal activity, microtiter broth dilution MIC; settings: 24-48 hours; for ANTIFUNGAL ACTIVITY (MIC): RPMI 1640, 35° C.
# Procedure: (§1) The antifungal activity for the 1-oxorapamycins of this invention was confirmed in a standard pharmacological test procedure which measured the ability of the compound being evaluated to inhibit fungal growth. 1-Oxorapamycin (Compound I), 1-oxorapamycin 42-ester with 3-hydroxy-2-(hydroxymethyl)-2-methylpropionic acid (Compound II), and 42-O-(2-hydroxy)ethyl 1-oxorapamycin (Compound III) were evaluated as representative compounds of this invention. The procedure used and results obtained are briefly described below. A 96 U-bottom microtiter plate was filled (50 μl/well) with RPMI 1640. The compounds to be evaluated were placed in appropriate wells, and serial diluted in successive wells to provide 11 dilutions. The concentrations ranged from 64 through 0.06 μg/ml. An adjusted inoculum of fungi (50 μl) was added to each well and the plates were incubated at 35° C. for 24-48 hours. […] Nystatin and rapamycin were used for the purpose of comparison.
# C. parapsilosis GC 3076 = assay: Antifungal activity, microtiter broth dilution MIC; settings: 24-48 hours; for ANTIFUNGAL ACTIVITY (MIC): RPMI 1640, 35° C.
# Procedure: as §1
# C. lusitaniae GC 3068 = assay: Antifungal activity, microtiter broth dilution MIC; settings: RPMI 1640, 35° C., 24-48 hours; for MIC: Clavispora lusitaniae
# Procedure: as §1
# C. albicans GC 3066 = assay: Antifungal activity, microtiter broth dilution MIC; settings: 24-48 hours; for ANTIFUNGAL ACTIVITY (MIC): RPMI 1640, 35° C.
# Procedure: as §1
# A. fumigatus GC 3092 = assay: Antifungal activity, microtiter broth dilution MIC; settings: for ANTIFUNGAL ACTIVITY (MIC): A. fumigatus GC 3092, RPMI 1640, 35° C., 24-48 hours
# Procedure: as §1
# C. parapsilosis GC 3075 = assay: Antifungal activity, microtiter broth dilution MIC; settings: 24-48 hours; for ANTIFUNGAL ACTIVITY (MIC): RPMI 1640, 35° C.
# Procedure: as §1
# C. albicans GC 3064 = assay: Antifungal activity, microtiter broth dilution MIC; settings: 24-48 hours; for ANTIFUNGAL ACTIVITY (MIC): RPMI 1640, 35° C.
# Procedure: as §1
# C. parapsilosis GC 3074 = assay: Antifungal activity, microtiter broth dilution MIC; settings: 24-48 hours; for ANTIFUNGAL ACTIVITY (MIC): RPMI 1640, 35° C.
# Procedure: as §1
# C. albicans GC 3065 = assay: Antifungal activity, microtiter broth dilution MIC; settings: 24-48 hours; for ANTIFUNGAL ACTIVITY (MIC): RPMI 1640, 35° C.
# Procedure: as §1
# C. pseudotropicalis 3070 = assay: Antifungal activity, microtiter broth dilution MIC; settings: RPMI 1640, 35° C., 24-48 hours
# Procedure: as §1
# C. tropicalis GC 3080 = assay: Antifungal activity, microtiter broth dilution MIC; settings: 24-48 hours; for ANTIFUNGAL ACTIVITY (MIC): RPMI 1640, 35° C.
# Procedure: as §1
# C. krussii GC 3067 = assay: Antifungal activity, microtiter broth dilution MIC; settings: RPMI 1640, 35° C., 24-48 hours
# Procedure: as §1
# A. niger GC 3091 = assay: Antifungal activity, microtiter broth dilution MIC; settings: 24-48 hours; for ANTIFUNGAL ACTIVITY (MIC): RPMI 1640, 35° C.
# Procedure: as §1
# A. niger GC 6591 = assay: Antifungal activity, microtiter broth dilution MIC; settings: 24-48 hours; for ANTIFUNGAL ACTIVITY (MIC): RPMI 1640, 35° C.
# Procedure: as §1
# [1] = test system: A431 (vulva epidermoid origin) tumor cell line; assay: Antineoplastic activity, tumor cell growth inhibition (sulforhodamine B); settings: 48 hours
# Excerpt: (§2) Antineoplastic activity for the compounds of this invention was confirmed by evaluating the antineoplastic activity of representative compounds of this invention (Compounds I-III) against six tumor cell lines in vitro. Briefly, tumor cells from six cell lines were placed in wells of a 96 well microtiter plate. The following tumor cell lines were used: 3T3 (ovarian), 3T3/H2N (ovarian—resistant to cis-platin), A431 (vulva epidermoid origin), SW620 (colon), SKBR3 (breast), and MDA-435 (breast). The tumors cells were grown in the presence of serial dilutions of the compound to be evaluated for 48 hours, and cell growth determined using a colorimetric procedure (sulforhrodamine B). The inhibition of growth was calculated compared to the number of cells at the time of test compound addition. Results are expressed as an IC50 (μg/ml); N/A indicates the compound was not evaluated against that cell line. The following IC50s was listed on Table 2.
# [2] = test system: SKBR3 (breast) tumor cell line; assay: as above; settings: 48 hours
# Excerpt: as §2
# [3] = test system: 3T3/H2N (ovarian—resistant to cis-platin) tumor cell line; assay: as above; settings: 3T3/H2N cells, 48 hours
# Excerpt: as §2
# [4] = test system: SW620 (colon) tumor cell line; assay: as above; settings: 48 hours
# Excerpt: as §2
# [5] = test system: 3T3 (ovarian) tumor cell line; assay: as above; settings: Mus musculus, NIH3T3, 3T3 cells, 48 hours
# Excerpt: as §2
# [6] = test system: MDA-435 (breast) tumor cell line; assay: as above; settings: MDA435 cells, 48 hours
# Excerpt: as §2
# [7] = C. lusitaniae GC 3068, first listing (r26)
smiles,measurement,setting,value
CO[C@H]1C[C@@H]2CC[C@@H](C)[C@@](O)(O2)C(=O)C(=O)N2CCCC[C@H]2C(=O)O[C@H]([C@H](C)C[C@@H]2CC[C@@H](O)[C@H](OC)C2)CC(=O)[C@H](C)/C=C(\C)[C@@H](O)[C@@H](OC)C(=O)[C@H](C)C[C@H](C)/C=C/C=C/C=C/1C [Rapamycin],"Mean Neurite Lengths after 168 h, Neurite Length",SH-SY5Y cells,261.4 ± 13.1 μm
same,MIC,"C. tropicalis GC 3081; Candida tropicalis, GC3081, RPMI 1640, 35° C.",0.25 µg/mL
same,MIC,"C. parapsilosis GC 3076; Lodderomyces parapsilosis, GC3076, RPMI 1640, 35° C.",< 0.12 µg/mL
same,MIC,"C. lusitaniae GC 3068; GC3068, C. lusitaniae GC 3068, first listing (r26), read-out: ANTIFUNGAL ACTIVITY (MIC)",< 0.12 µg/mL
same,MIC,"C. lusitaniae GC 3068; GC3068, read-out: ANTIFUNGAL ACTIVITY (MIC), C. lusitaniae GC 3068, second listing (r28)",0.5 µg/mL
same,MIC,"C. albicans GC 3066; Candida albicans, GC3066, RPMI 1640, 35° C.",< 0.12 µg/mL
same,MIC,"A. fumigatus GC 3092; Aspergillus fumigatus, GC3092, read-out: ANTIFUNGAL ACTIVITY (MIC)",> 128 µg/mL
same,MIC,"C. parapsilosis GC 3075; Lodderomyces parapsilosis, GC3075, RPMI 1640, 35° C.",< 0.12 µg/mL
same,MIC,"C. albicans GC 3064; Candida albicans, GC3064, RPMI 1640, 35° C.",< 0.12 µg/mL
same,MIC,"C. parapsilosis GC 3074; Lodderomyces parapsilosis, GC3074, RPMI 1640, 35° C.",0.25 µg/mL
same,MIC,"C. albicans GC 3065; Candida albicans, GC3065, RPMI 1640, 35° C.",0.5 µg/mL
same,MIC,C. pseudotropicalis 3070; Kluyveromyces marxianus,< 0.12 µg/mL
same,MIC,"C. tropicalis GC 3080; Candida tropicalis, GC3080, RPMI 1640, 35° C.",0.25 µg/mL
same,MIC,C. krussii GC 3067,4 µg/mL
same,MIC,"A. niger GC 3091; Aspergillus niger, GC3091, RPMI 1640, 35° C.",> 128 µg/mL
same,MIC,"A. niger GC 6591; Aspergillus niger, GC6591, RPMI 1640, 35° C.",> 128 µg/mL
same,IC50,"[1]; Homo sapiens, A-431, A431 cells",1.9 µg/mL
same,IC50,"[2]; Homo sapiens, SK-BR-3, SKBR3 cells",0.87 µg/mL
same,IC50,[3],1.7 µg/mL
same,IC50,"[4]; Homo sapiens, SW-620, SW620 cells",2.3 µg/mL
same,IC50,[5],0.48 µg/mL
same,IC50,[6],1.3 µg/mL
"CO[C@H]1CC2CC[C@@H](C)[C@@](O)(O2)C(=O)C(=O)N2CCCC[C@H]2C(=O)O[C@H]([C@H](C)CC2CC[C@@H](OCCO)[C@H](OC)C2)CC(=O)[C@H](C)/C=C(\C)[C@@H](O)[C@@H](OC)C(=O)[C@H](C)C[C@H](C)C(=O)C/C=C/C=C/1C (stereo partly drawn) [Compound III, 42-O-(2-Hydroxy)ethyl 1-oxorapamycin]",ANTIFUNGAL ACTIVITY (MIC),C. tropicalis GC 3081,2 µg/mL
same,ANTIFUNGAL ACTIVITY (MIC),C. parapsilosis GC 3076,2 µg/mL
same,ANTIFUNGAL ACTIVITY (MIC),C. lusitaniae GC 3068; [7],2 µg/mL
same,ANTIFUNGAL ACTIVITY (MIC),C. albicans GC 3066,2 µg/mL
same,ANTIFUNGAL ACTIVITY (MIC),A. fumigatus GC 3092,2 µg/mL
same,ANTIFUNGAL ACTIVITY (MIC),C. parapsilosis GC 3075,2 µg/mL
same,ANTIFUNGAL ACTIVITY (MIC),C. albicans GC 3064,4 µg/mL
same,ANTIFUNGAL ACTIVITY (MIC),C. parapsilosis GC 3074,2 µg/mL
same,ANTIFUNGAL ACTIVITY (MIC),C. albicans GC 3065,2 µg/mL
same,ANTIFUNGAL ACTIVITY (MIC),C. pseudotropicalis 3070,2 µg/mL
same,ANTIFUNGAL ACTIVITY (MIC),C. tropicalis GC 3080,2 µg/mL
same,ANTIFUNGAL ACTIVITY (MIC),C. krussii GC 3067,>32 µg/mL
same,ANTIFUNGAL ACTIVITY (MIC),A. niger GC 3091,>32 µg/mL
same,ANTIFUNGAL ACTIVITY (MIC),A. niger GC 6591,>32 µg/mL
same,Antineoplastic Activity (IC50),[1]; A431 cells,0.48 µg/mL
same,Antineoplastic Activity (IC50),[2]; SKBR3 cells,0.038 µg/mL
same,Antineoplastic Activity (IC50),[4]; SW620 cells,1.9 µg/mL
"C[C@@H]1[C@H](O)[C@@H](C)/C=C/C=C/CC/C=C/C=C/C=C/C=C/C(O[C@H]2O[C@H](C)[C@@H](O)[C@H](N)[C@@H]2O)CC2O[C@](O)(CC(O)C(O)CCC(O)CC(O)CC(O)CC(=O)O[C@H]1C)CC(O)C2C(=O)O (stereo partly drawn) [Nystatin, reference compound]",ANTIFUNGAL ACTIVITY (MIC),C. tropicalis GC 3081,1 µg/mL
same,ANTIFUNGAL ACTIVITY (MIC),C. parapsilosis GC 3076,0.50 µg/mL
same,ANTIFUNGAL ACTIVITY (MIC),C. lusitaniae GC 3068; [7],0.50 µg/mL
same,ANTIFUNGAL ACTIVITY (MIC),"C. lusitaniae GC 3068; C. lusitaniae GC 3068, second listing (r28)",1 µg/mL
same,ANTIFUNGAL ACTIVITY (MIC),C. albicans GC 3066,1 µg/mL
same,ANTIFUNGAL ACTIVITY (MIC),A. fumigatus GC 3092,1 µg/mL
same,ANTIFUNGAL ACTIVITY (MIC),C. parapsilosis GC 3075,0.50 µg/mL
same,ANTIFUNGAL ACTIVITY (MIC),C. albicans GC 3064,1 µg/mL
same,ANTIFUNGAL ACTIVITY (MIC),C. parapsilosis GC 3074,1 µg/mL
same,ANTIFUNGAL ACTIVITY (MIC),C. albicans GC 3065,1 µg/mL
same,ANTIFUNGAL ACTIVITY (MIC),C. pseudotropicalis 3070,0.50 µg/mL
same,ANTIFUNGAL ACTIVITY (MIC),C. tropicalis GC 3080,0.25 µg/mL
same,ANTIFUNGAL ACTIVITY (MIC),C. krussii GC 3067,1 µg/mL
same,ANTIFUNGAL ACTIVITY (MIC),A. niger GC 3091,2 µg/mL
same,ANTIFUNGAL ACTIVITY (MIC),A. niger GC 6591,2 µg/mL
